Measured values from paper PMC9582194, “The effect of helix-inducing constraints and downsizing upon a transcription block survival-derived functional cJun antagonist” (Cell Reports. Physical Science, 2022).
Several values for one entry are separate records, joined by “and”; a condition that tells them apart may be missing. Equal entries are not always repeated. Positions of bridges follow the written chain, without caps; N, C: chain ends. Residues, ends and D or L forms follow the SMILES beside them.

Key:
[1] = target: T1, cJun/TRE DNA interaction (Homo sapiens, UniProt P05412); experiment: CD antagonism of the cJun/TRE DNA interaction; assay type: biochemical
T1 construct: The same 60 amino acid cJun construct, encompassing the entire bZIP domain, was used for all experiments
T1 sequence (P05412 252-315 limits assumed): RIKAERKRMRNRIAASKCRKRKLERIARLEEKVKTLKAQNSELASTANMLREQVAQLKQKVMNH
Method: The precise nature of the interaction between the cJun DBD and the rationally designed acidic domain of HW1 is unknown. HW1 was, therefore, iteratively truncated from the N terminus (HW2–6) to investigate the effect on cJun binding and cJun/TRE DNA antagonism (Table 1). Peptide fraction helicity (fH) was determined by quantifying the circular dichroism (CD) signal at 222 nm of peptide-only samples (Figure S1). Thermal denaturation experiments were then used to determine the melting temperature (Tm) of peptide-cJun heterodimers, which serves as an approximate measure of target engagement. CD was also used to investigate the functional activity of peptides in antagonizing the cJun/TRE DNA interaction. […] This provides a clear and direct measurement of the proportion of DNA bound to cJun. As antagonist peptide concentration was increased, the peak shifted to overlay with that of free TRE-DNA (Figure S4). […]
Figure 2 Iterative N-terminal truncation of HingeW reduces cJun binding and antagonism (A) Thermal denaturation profiles for iteratively truncated peptide (5 μM)/cJun (5 μM) heterodimer samples. (B) CD antagonism data produced by monitoring the shift in a DNA specific peak to provide a direct readout of cJun-DNA binding. […]

[2] = target: T2, cJun (Homo sapiens, UniProt P05412); experiment: CD thermal denaturation of peptide-cJun heterodimers (Tm); assay type: binding; details: for Tm of peptide-cJun heterodimer: CD ellipticity at 222 nm, 1-90 °C, peptide (5 μM)/cJun (5 μM), 20 mM potassium phosphate, 150 mM potassium fluoride, 2 mM TCEP pH 7.4, two-state fit, duplicate experiments, ± one SD
T2 construct: The same 60 amino acid cJun construct, encompassing the entire bZIP domain, was used for all experiments
T2 sequence (P05412 252-315 limits assumed): as above
Method: (§1) The precise nature of the interaction between the cJun DBD and the rationally designed acidic domain of HW1 is unknown. HW1 was, therefore, iteratively truncated from the N terminus (HW2–6) to investigate the effect on cJun binding and cJun/TRE DNA antagonism (Table 1). Peptide fraction helicity (fH) was determined by quantifying the circular dichroism (CD) signal at 222 nm of peptide-only samples (Figure S1). Thermal denaturation experiments were then used to determine the melting temperature (Tm) of peptide-cJun heterodimers, which serves as an approximate measure of target engagement. CD was also used to investigate the functional activity of peptides in antagonizing the cJun/TRE DNA interaction. […] This provides a clear and direct measurement of the proportion of DNA bound to cJun. As antagonist peptide concentration was increased, the peak shifted to overlay with that of free TRE-DNA (Figure S4). For each peptide, the data were fit to a Hill equation to determine half-maximal inhibitory concentration (IC50) values, specific to these assay conditions, providing a clear comparative measure of antagonism. The same 60 amino acid cJun construct, encompassing the entire bZIP domain, was used for all experiments regardless of antagonist peptide length.
Figure 2 Iterative N-terminal truncation of HingeW reduces cJun binding and antagonism (A) Thermal denaturation profiles for iteratively truncated peptide (5 μM)/cJun (5 μM) heterodimer samples. (B) CD antagonism data produced by monitoring the shift in a DNA specific peak to provide a direct readout of cJun-DNA binding. Peptides are added at the indicated concentrations to a pre-incubated mixture of cJun (20 μM) and TRE DNA (5 μM). Data points were averaged from triplicate experiments, and error bars indicate one SD. The data were fitted to a Hill equation to determine IC50 values. Some higher peptide concentration data points for HW6 and HW9 are not shown in this plot for clarity.

[3] = Peptide fraction helicity by CD at 222 nm, peptide-only samples; assay type: physicochemical; details: CD signal at 222 nm of peptide-only samples; pH 7.4 phosphate/KF/TCEP buffer; duplicate experiments
Method: as §1

[4] = Stability in human serum; details: human serum (Merck), 75 μL of 600 μM peptide stock added to 1425 μL serum, 37 °C, 3-day endpoint; acetonitrile:water precipitation; LC-MS, sum of two largest charge-state peaks; average of three repeats
[5] = target: T2, cJun; experiment: Isothermal titration calorimetry (ITC) with cJun; assay type: binding; details: 25 °C, average of two experiments ± one SD
Description: A selection of peptides from this work were investigated by isothermal titration calorimetry (ITC) to quantify the thermodynamic parameters of their interaction with target cJun (Figure 4 and S6; Table 2). The determined equilibrium binding constant (KD) values follow from the CD data above and can be rationalized in terms of the truncation or lactamization they represent. […] All interactions investigated were dominated by the enthalpic component, with a smaller unfavorable entropic contribution, other than for HW8/cJun, which is the weakest interaction. The unfavorable entropic component was largest for the HW30/cJun interaction and smallest for HW23/cJun. This indicates the introduction of lactams produces a more unfavorable entropic component, perhaps a surprising result as helix-inducing lactamization is typically considered to increase affinity through entropic pre-organization. However, the larger increase in the favorable enthalpic component produces an increase in binding affinity due to lactamization. This is likely to be caused by a combination of enhanced intermolecular contacts and ordering that are opposed by unfavorable desolvation effects.
Two-μL injections of antagonist peptide at 25–200 μM were injected into the cell containing cJun at 2.5–20 μM at 25°C. Microcal Control and Analysis software were used to record and analyze the heat change upon addition and fit the data to a one-site binding model to extract the enthalpy change of binding (ΔH) and the KD, from which the free energy change of binding (ΔG) and the entropy change of binding (ΔS) were calculated.[40] Control experiments involved the injection of the antagonist peptide sample into the cell containing ITC buffer alone to determine the heat of dilution, which was subtracted. Thermodynamic parameters are presented as an average of two independent experiments with errors given as one SD.

[6] = system: TRE DNA; experiment: CD of TRE DNA with antagonist peptide alone (Figure S3); assay type: binding; details: TRE DNA (5 μM) + HingeW (50 μM), CD 260-320 nm
Method: as §1, with “length. […]” for “length.”
wavelength range, so the CD signal observed occurs due to the DNA structure, which is not perturbed upon addition of HingeW. […]

[7] = target: cJun (60 amino acid construct encompassing the entire bZIP domain) (UniProt P05412)
Chain of cJun (60 amino acid construct encompassing the entire bZIP domain) (UniProt P05412) (P05412 252-315): as the sequence (P05412 252-315 limits assumed) above

[8] = CD thermal denaturation; peptide alone (no cJun); thermal denaturation curves compared as a sign of homodimerization; details: other: CD thermal denaturation
[9] = target: T3, cJun (60 amino acid construct encompassing the entire bZIP domain) (UniProt P05412 252-315); experiment: cell-based or functional assay
T3 sequence (P05412 252-315): as the sequence (P05412 252-315 limits assumed) above

[10] = target: T3, cJun (60 amino acid construct …); experiment: CD thermal denaturation; peptide (5 μM) with cJun (5 μM); ellipticity at 222 nm, 1°C to 90°C; 20 mM potassium phosphate, 150 mM potassium fluoride, 2 mM TCEP, pH 7.4; two-state fit gives the Tm of the peptide-cJun heterodimer; duplicate experiments; details: both partners purified
[11] = peptide 25-200 μM injected into cJun 2.5-20 μM, pH 7.4, one-site model

Molecule: MASLEQRAEELARENEELEKEAEELVVE-NH2 [HW7, acidic domain of HW1 alone (CΔ35)]
- antagonism of the ability of cJun to bind TRE DNA (in words) ([1]; CD antagonism assay): did not
- binding to cJun (in words) ([2]; acidic domain alone): not to bind

Molecule: Ac-EAEELVVEEDVLEEEIEQLEEKNKALKDEIEDLY-NH2 [HW14]
- IC50 ([1]; peptide added to pre-incubated cJun (20 μM) and TRE DNA (5 μM), shift of DNA CD peak at ~281 nm, 30 min equilibration, pH 7.4, Hill fit, triplicate experiments, ± one SD, read-out: IC50 CD (antagonism of cJun/TRE DNA binding)): 1560 µM
- fH, peptide fraction helicity [3]: 30.1%

Molecule: CC[C@H](C)[C@H](NC(=O)[C@H](CCC(=O)O)NC(=O)[C@H](CCCCN)NC(=O)[C@H](CCCNC(=N)N)NC(=O)[C@H](CC(C)C)NC(=O)[C@H](C)NC(=O)[C@H](Cc1ccc(O)cc1)NC(=O)[C@H](CC(N)=O)NC(=O)[C@H](CCCNC(=N)N)NC(=O)[C@H](CCC(=O)O)NC(=O)[C@H](CCC(=O)O)NC(=O)[C@H](CC(C)C)NC(=O)[C@H](CCC(N)=O)NC(=O)[C@H](CCC(=O)O)NC(=O)[C@@H](NC(=O)[C@H](CCC(=O)O)NC(=O)[C@@H]1CC(=O)NCCCC[C@H](NC(=O)[C@H](CCC(=O)O)NC(=O)[C@H](CCC(=O)O)NC(=O)[C@@H](NC(=O)[C@@H](NC(=O)[C@H](CC(C)C)NC(=O)[C@H](CCC(=O)O)NC(=O)[C@H](CCC(=O)O)NC(=O)[C@H](C)NC(=O)[C@H](CCC(=O)O)NC(C)=O)C(C)C)C(C)C)C(=O)N[C@@H](C(C)C)C(=O)N[C@@H](CC(C)C)C(=O)N[C@@H](CCC(=O)O)C(=O)N1)[C@@H](C)CC)C(=O)N[C@H]1CCCCNC(=O)C[C@@H](C(=O)N[C@@H](CCC(N)=O)C(N)=O)NC(=O)[C@H](CCC(N)=O)NC(=O)[C@H](CC(C)C)NC(=O)[C@H](CC(=O)O)NC1=O [HW30] (Ac-EAEELVVEEKVLEDEIEQLEERNYALRKEIKDLQDQ-NH2; lactam 10-14, 31-35)
- peptide remaining in human serum, peak intensity relative to starting value [4]: 56%

Molecule: Ac-EAEELVVEEDVLEEEIEQLEERNYALRKEIEDLQKQ-NH2 [HW8]
- ΔH ([5]; pH 7.4, one-site model): -5.989 ± 0.813 kcal/mol
- Stoichiometry, n [5, 11]: 0.95 ± 0.09
- peptide remaining in human serum, peak intensity relative to starting value [4]: fully degraded
- fH, peptide fraction helicity [3]: 37.3%
- Tm of peptide-cJun heterodimer [2]: 57.1 ± 0.9 °C

Molecule: Ac-EAEELVVEEDVLEEEIEQLEERNYALRKEIEDLQKQLEKL-NH2 [HW4]
- ΔH ([5]; pH 7.4, one-site model): -45.399 ± 1.93 kcal/mol
- Stoichiometry, n [5, 11]: 0.91 ± 0.04
- fH, peptide fraction helicity [3]: 45.5%
- Tm of peptide-cJun heterodimer [2]: 64.1 ± 1.5 °C

Molecule: CC[C@H](C)[C@H](NC(=O)[C@H](CCC(=O)O)NC(=O)[C@H](CCCCN)NC(=O)[C@H](CCCNC(=N)N)NC(=O)[C@H](CC(C)C)NC(=O)[C@H](C)NC(=O)[C@H](Cc1ccc(O)cc1)NC(=O)[C@H](CC(N)=O)NC(=O)[C@H](CCCNC(=N)N)NC(=O)[C@H](CCC(=O)O)NC(=O)[C@H](CCC(=O)O)NC(=O)[C@H](CC(C)C)NC(=O)[C@H](CCC(N)=O)NC(=O)[C@H](CCC(=O)O)NC(=O)[C@@H](NC(=O)[C@H](CCC(=O)O)NC(=O)[C@H](CCC(=O)O)NC(=O)[C@H](CCC(=O)O)NC(=O)[C@H](CC(C)C)NC(=O)[C@@H](NC(=O)[C@H](CC(=O)O)NC(=O)[C@H](CCC(=O)O)NC(=O)[C@H](CCC(=O)O)NC(=O)[C@@H](NC(=O)[C@@H](NC(=O)[C@H](CC(C)C)NC(=O)[C@H](CCC(=O)O)NC(=O)[C@H](CCC(=O)O)NC(=O)[C@H](C)NC(=O)[C@H](CCC(=O)O)NC(C)=O)C(C)C)C(C)C)C(C)C)[C@@H](C)CC)C(=O)N[C@H]1CCCCNC(=O)C[C@@H](C(=O)N[C@@H](CCC(N)=O)C(N)=O)NC(=O)[C@H](CCC(N)=O)NC(=O)[C@H](CC(C)C)NC(=O)[C@H](CC(=O)O)NC1=O [HW29] (Ac-EAEELVVEEDVLEEEIEQLEERNYALRKEIKDLQDQ-NH2; lactam 31-35)
- Kd [5, 11]: 0.0866 ± 0.017 µM
- peptide remaining in human serum, peak intensity relative to starting value [4]: 31%
- ΔTm of cJun heterodimer due to lactamization ([2]; cyclized versus its linear (non-lactamized) counterpart): ~9 °C
- ΔTm of cJun heterodimer relative to parent sequence HW8 ([2]; versus HW8, before the substitutions for K and D residues): ~8 °C

Molecule: MASLEQRAEELARENEELEKEAEELVVEEDVLEEEIEQLEERNYALRKEIEDLQKQLEKLGAPHHHHHH [HW1, TBS-derived cJun antagonist; recombinantly produced N/C-capped, C-terminally 6xHis-tagged construct of 69 amino acids]
- ΔG ([5]; pH 7.4, calculated from KD): -13.45 ± 0.179 kcal/mol
- -TΔS ([5]; pH 7.4, calculated from ΔH and KD): 17.55 ± 0.884 kcal/mol
- interaction with TRE DNA (in words) [6]: does not interact
- peptide remaining in human serum, peak intensity relative to starting value [4]: fully degraded
- fH, peptide fraction helicity [3]: ~27% and 27.2%

Molecule: Ac-EAEELVVEEDVLEEEIEQLEEKNKALKDEIEDLY-NH2 [HW14]
- IC50 CD: peptide added to pre-incubated cJun (20 μM) and TRE DNA (5 μM); blocks cJun/TRE DNA binding [7]: 1560 µM

B1: HW5 (peptide)
peptide: Ac-LVVEEDVLEEEIEQLEERNYALRKEIEDLQKQLEKL-NH2
notes: truncation NΔ24 CΔ3 of HW1; source: synthetic peptide (Fmoc SPPS, RP-HPLC purified)
- Tm of the peptide alone [8]: HW5 displayed a Tm of 41 °C
- IC50 CD: peptide added to pre-incubated cJun (20 μM) and TRE DNA (5 μM); blocks cJun/TRE DNA binding [9]: 78.2 µM
- Tm of the peptide-cJun heterodimer [10]: 62.8 °C
